# Laboratory results: patent publication US6344505B1, “Mono- and bis-benzotriazolyldihydroxybiaryl UV absorbers” (Cytec Industries Inc., priority 1999, dated 2002)
# Values joined by “and” are separate entries in the source; they are usually repeats but may differ in a detail not shown here. Identical values can stand only once. Like-named read-outs stand apart in the source and are kept apart here.
# What was measured:
# [1] = Thermal Gravimetric Analysis (TGA), temperature of 10 wt % loss (volatility); format: physicochemical; conditions: for TGA T-10%: Temperature at which 10% wt. loss is observed during TGA analysis; for TGAT=10% point: temperature at which 10 wt % loss occurs, TGA experiment
# Source text: A reliable indication of the volatility of benzotriazole stabilizers is the temperatures at which 10 wt % loss occurs (TGAT=10%).
# [2] = Solubility in xylene (compatibility); format: physicochemical
# [3] = UV absorption in toluene (λmax, molar absorptivity); format: physicochemical
# Source text: The high molar absorptivity of 3,3′-bis-(2H-benzotriazol-2-yl)-5,5′-di-tert-octyl-1,1′-biphenyl-2,2′-diol, ε310=25,600 (toluene) and ε353=28,300 (toluene) are indicative of high ultraviolet absorption efficiency of the benzotriazole stabilizers of the present invention.
# The bis-benzotriazoles of the invention absorb UV light at longer wavelengths than their non-dimeric or alkylene bridged dimeric counterparts. For example, the dimeric 3,3′-bis-(2H-benzotriazol-2-yl)-5,5′-di-tert-octyl-1,1′-biphenyl-2,2′-diol of the present invention absorbs at λmax(toluene)=353 nm. In contrast, the monomeric 2-(2H-benzotriazol-2-yl)-4-tert-octyl-phenol absorbs at a much lower wavelength, at λmax(toluene)=346 nm. Furthermore, the methylene bridged 2,2′-methylenedi{6-(2-benzotriazolyl)-4-tert-octyl-phenol} has an absorption at λmax(toluene)=350 nm, also substantially shorter than that of the bis-benzotriazoles of the present invention.
# PRODUCT A: 3,3′-bis-(2H-benzotriazol-2-yl)-5,5′-di-tert-octyl-1,1′-biphenyl-2,2′-diol (COMPOUND 1) (0.033 g), characterized by ^1H nuclear magnetic resonance spectroscopy (NMR), ultraviolet and mass spectroscopy; λmax(toluene): 310 and 353 nm; ε310=25,600; ε353=28,300; high resolution electron impact mass spectroscopy (HREI/MS): m/e=Found: 644.3815; Calculated: 644.3839; and
# PRODUCT B: 3-(2H-Benzotriazol-2-yl)-5,5′-di-tert-octyl-1,1′-biphenyl-2,2′-diol (0.144 g), characterized by ^1H nuclear magnetic resonance spectroscopy (NMR), ultraviolet spectroscopy, and mass spectroscopy; λmax(toluene): 332 nm; ε332=15,400; high resolution electron impact mass spectroscopy (HREI/MS): m/e=Found: 527.3498; Calculated: 527.3512.
# [4] = Florida weathering (5° south, direct, ASTM G7-89) of acrylic melamine coating; conditions: Table 11
# Description: COMPOUND 1 was formulated in a clear acrylic melamine coatings which were applied to aluminum panels for accelerated weathering testing as follows. COMPOUND 1 (2% based on total resin solids) was pre-dissolved in xylenes, alone and in combination with Sanduvor® 3058 HALS (0.5% or 1.0% based on total resin solids), and added to the clear acrylic melamine formulation given in Table 6. A formulation containing Tinuvin® 328 (2% based on total resin solids) was also prepared for comparison purposes. Unpolished aluminum panels, measuring 4″×12″, obtained from ACT Laboratories, Inc. (Hillsdale, Mich.) were coated with the clear coat formulation of Table 6. The draw-down technique, using WC-52 Wire-Cators™ (Leneta co., Ho-Ho-Kus, N.J.), was used to apply the clear coats to the panels. Coatings 2 mil thick were obtained. The clear coats were allowed to flash for 10 min. at ambient temperature and cured for 30 min. at 135° C.
# The coatings of Example 13 were weathered in Miami, Fla. The testing was performed in accordance with ASTM G7-89 at a tilt angle of […] from the horizontal facing south with specimens mounted unbacked.
compound,measurement,setting,value
"CC(C)(C)CC(C)(C)c1cc(-c2cc(C(C)(C)CC(C)(C)C)cc(-n3nc4ccccc4n3)c2O)c(O)c(-n2nc3ccccc3n2)c1 [COMPOUND 1, 3,3′-bis-(2H-benzotriazol-2-yl)-5,5′-di-tert-octyl-1,1′-biphenyl-2,2′-diol]",TGA T-10%,[1],381 °C
same,TGAT=10% point,[1],384 °C
same,solubility in xylene,[2],6.0 gram/100 ml
same,λmax(toluene),[3],310 nm and 353 nm
same,molar absorptivity ε310,"[3]; 310 nm, in M-1 cm-1 (unit assumed)","25,600"
same,molar absorptivity ε353,"[3]; 353 nm, in M-1 cm-1 (unit assumed)","28,300"
same,λmax(toluene),"[3]; listed as 3,3′-bis-(2H-benzotriazol-2-yl)-5,5′-di-tert-octyl-1,1′-biphenyl-2,2′-diol",353 nm
same,efficiency in reducing total color change (delta E) relative to the unstabilized coating,[4],comparable efficiency
same,melting point,,209 to 211 °C
"CC(C)(C)c1cc(-c2cc(C(C)(C)C)cc(-n3nc4ccccc4n3)c2O)c(O)c(-n2nc3ccccc3n2)c1 [COMPOUND 2, 3,3′-bis-(2H-benzotriazol-2-yl)-5,5′-di-tert-butyl-1,1′-biphenyl-2,2′-diol]",melting point,,234 °C
"CC(C)(c1ccccc1)c1cc(-c2cc(C(C)(C)c3ccccc3)cc(-n3nc4ccccc4n3)c2O)c(O)c(-n2nc3ccccc3n2)c1 [COMPOUND 3, 3,3′-bis-(2H-benzotriazol-2-yl)-5,5′-di-cumyl-1,1′-biphenyl-2,2′-diol]",TGA T-10%,[1],377 °C
"Oc1c(-c2cccc(-n3nc4ccccc4n3)c2O)cccc1-n1nc2ccccc2n1 [COMPOUND 5, 3,3′-bis-(2H-benzotriazol-2-yl)-1,1′-biphenyl-2,2′-diol]",TGA T-10%,[1],383 °C
"CC(C)(C)CC(C)(C)c1cc(Cc2cc(C(C)(C)CC(C)(C)C)cc(-n3nc4ccccc4n3)c2O)c(O)c(-n2nc3ccccc3n2)c1 [LA-31 ®, 2,2′-Methylenedi [Bis-2-benzotriazolyl)-4-tert-octylphenol]",TGA T-10%,[1],380 °C
"CC(C)(C)CC(C)(C)c1cc(Cc2cc(C(C)(C)CC(C)(C)C)cc(-n3nc4ccccc4n3)c2O)c(O)c(-n2nc3ccccc3n2)c1 [MIXXIM BB/100®, 2,2′-methylenedi{6-(2-benzotriazolyl)-4-tert-octyl-phenol}, reference compound]",TGAT=10% point,[1],370 °C
same,solubility in xylene,[2],2.5 gram/100 ml
same,λmax(toluene),[3],350 nm
"CC(C)(C)CC(C)(C)c1ccc(O)c(-c2cc(C(C)(C)CC(C)(C)C)cc(-n3nc4ccccc4n3)c2O)c1 [PRODUCT B, 3-(2H-Benzotriazol-2-yl)-5,5′-di-tert-octyl-1,1′-biphenyl-2,2′-diol]",λmax(toluene),[3],332 nm
same,molar absorptivity ε332,[3]; 332 nm,"15,400"
"Cc1ccc(O)c(-n2nc3ccccc3n2)c1 [Tinuvin P ™, 2-(2H-benzotriazol-2-yl)-4-methyl-phenol]",TGA T-10%,[1],205 °C
"CCC(C)(C)c1cc(-n2nc3ccccc3n2)c(O)c(C(C)(C)CC)c1 [Tinuvin ® 328, reference compound]",efficiency in reducing total color change (delta E) relative to the unstabilized coating,[4],comparable efficiency
"CC(C)(c1ccccc1)c1cc(-n2nc3ccccc3n2)c(O)c(C(C)(C)c2ccccc2)c1 [Tinuvin ®-234, 2-(2H-Benzotriazol-2yl)-4,6-bis (α,α-dimethylbenzyl) phenol]",TGA T-10%,[1],312 °C
"CC(C)(C)CC(C)(C)c1ccc(O)c(-n2nc3ccccc3n2)c1 [UV-5411, 2-(2H-benzotriazol-2-yl)-4-tert-octyl-phenol]",TGA T-10%,[1],245 °C
same,TGAT=10% point,[1],247 °C
same,λmax(toluene),[3],346 nm
